Source: patent US20260355184A1, “SMALL MOLECULE DEGRADERS OF HIV-1 TAT PROTEIN” (priority 2022, published 2026)
Read-outs that look alike come from different tables or passages of the source.

What was measured:
[1] = Cytotoxicity assay, Cell-Titer-Glo, HeLa-CD4-LTR-LacZ; settings: human, hela-cd4-ltr-lacz cells, Infectivity CC50, HeLa-CD4-LTR-LacZ
Experimental: (§1) Next, the activity of these leads against HIV infection was evaluated using the reporter cell line HeLa-CD4-LTR-LacZ, which stably expresses the β-galactosidase (β-Gal) gene under the control of the HIV 5′ LTR. The HIV NL4.3 strain was used for these studies and β-Gal activity was measured 72 hrs post infection (FIG. 3A). Cytotoxicity assays using Cell-Titer-Glo were performed in parallel to assess cell viability (FIG. 3A). […] Their anti-HIV activity was further assessed in acute replication of Jurkat T cells with the NL4.3 strain (FIG. 3A). […] These OM10.1 cells contain a single integrated wild-type provirus, while ACH-2 cells contain a single integrated provirus with a TAR mutation C37T, defective Tat-TAR feedback loop (FIG. 3B).

HIV NL4.3 strain = assay: HIV infectivity assay, reporter cell line HeLa-CD4-LTR-LacZ, β-Gal activity (Tat protein inhibition); assay type: cell-based, HIV-1 (NL4.3); settings: Human immunodeficiency virus 1, read-out: Infectivity IC50, HeLa-CD4-LTR-LacZ
Experimental: as §1

With `CC(C(=O)NCCc1ccc(C(F)(F)F)cc1)(c1ccccc1)c1ccccc1` [3-45] the CC50 ([1]; analogs of TT-44856 (Table 3)) was 50 to 100 µM and the IC50 (HIV NL4.3 strain; analogs of TT-44856 (Table 3)) was 10 to 20 µM.
In the case of `O=C(NCCCN1CCCC1=O)c1n[nH]c2ccccc12` [compound 46826], the CC50 ([1]; analogs of TT-44881 (Table 1)) is reported as greater than 100 µM and the IC50 (HIV NL4.3 strain; analogs of TT-44881 (Table 1)) is reported as greater than 100 µM.
Compound `O=C(NCCCN1CCCC1=O)c1cn(-c2ccccc2)c2ccccc12` [compound 46878] has a CC50 ([1]; analogs of TT-44881 (Table 1)) greater than 100 µM and an IC50 (HIV NL4.3 strain; analogs of TT-44881 (Table 1)) of 50 to 100 µM.
With `NC(C(=O)NCCCn1ccnc1)(c1ccccc1)c1ccccc1` [3-42] the CC50 ([1]; analogs of TT-44856 (Table 3)) was greater than 100 µM and the IC50 (HIV NL4.3 strain; analogs of TT-44856 (Table 3)) was 10 to 30 µM.
`COc1ccc(C(F)(F)F)cc1-c1noc(Cn2cc(C)cc(Cl)c2=O)n1` [compound 47198] gave a CC50 ([1]; analogs of TT-44863 (Table 2)) greater than 50 µM and an IC50 (HIV NL4.3 strain; analogs of TT-44863 (Table 2)) greater than 50 µM.
For `O=C(NCCCn1ccnc1)c1n[nH]c2c1CCC2` [compound 46726], the CC50 ([1]; analogs of TT-44881 (Table 1)) was greater than 100 µM and the IC50 (HIV NL4.3 strain; analogs of TT-44881 (Table 1)) was greater than 100 µM.
For `O=C(NCCCn1ccnc1)c1cc(Cl)nc2ccccc12` [3-39], the CC50 ([1]; analogs of TT-44856 (Table 3)) was greater than 100 µM and the IC50 (HIV NL4.3 strain; analogs of TT-44856 (Table 3)) was greater than 100 µM.
Work on `COCCOc1ccc(C(F)(F)F)cc1NC(=O)Cn1cccc(Cl)c1=O` [compound 46704] yielded a CC50 ([1]; analogs of TT-44863 (Table 2)) greater than 100 µM and an IC50 (HIV NL4.3 strain; analogs of TT-44863 (Table 2)) greater than 100 µM.
With `O=C(NCCCN1CCCC1=O)c1n[nH]c2c1CCC2` [compound 46727] the CC50 ([1]; analogs of TT-44881 (Table 1)) was greater than 100 µM and the IC50 (HIV NL4.3 strain; analogs of TT-44881 (Table 1)) was greater than 100 µM.
`NS(=O)(=O)c1ccc(CCNC(=O)c2cn(-c3ccccc3)c3ccccc23)cc1` [compound 41799] gave a CC50 ([1]; analogs of TT-44881 (Table 1)) greater than 100 µM and an IC50 (HIV NL4.3 strain; analogs of TT-44881 (Table 1)) of 5 to 20 µM.
For `O=C(c1nn(-c2ccccc2)c2c1CCC2)N1CCCC1` [compound 46607], the CC50 ([1]; analogs of TT-44881 (Table 1)) was greater than 100 µM and the IC50 (HIV NL4.3 strain; analogs of TT-44881 (Table 1)) was greater than 100 µM.
For `COc1ccc(C#N)cc1NC(=O)Cn1cc(C(F)(F)F)cc(Cl)c1=O` [compound 46828], the CC50 ([1]; analogs of TT-44863 (Table 2)) was 50 to 100 µM and the IC50 (HIV NL4.3 strain; analogs of TT-44863 (Table 2)) was 50 to 100 µM.
With `CCOc1ccccc1NC(=O)Cn1c(C)cc(COC)c(C#N)c1=O` [compound 46602] the CC50 ([1]; analogs of TT-44863 (Table 2)) was greater than 100 µM and the IC50 (HIV NL4.3 strain; analogs of TT-44863 (Table 2)) was greater than 100 µM.
With `O=C(Cn1cc(C(F)(F)F)cc(Cl)c1=O)Nc1cccc2c1OCCO2` [compound 46615] the CC50 ([1]; analogs of TT-44863 (Table 2)) was greater than 100 µM and the IC50 (HIV NL4.3 strain; analogs of TT-44863 (Table 2)) was greater than 100 µM.
Compound `Cc1ccc(CCC(=O)NCCCn2ccnc2)cc1` [Z196426172] has an IC50 (HIV NL4.3 strain; analogs of TT-44856 (Table 3)) greater than 100 µM.
`CCCCOCCC(C(=O)NCCCn1ccnc1)(c1ccccc1)c1ccccc1` [3-75] showed a CC50 ([1]; analogs of TT-44856 (Table 3)) greater than 100 µM and an IC50 (HIV NL4.3 strain; analogs of TT-44856 (Table 3)) of 50 to 100 µM.
In the case of `CC(C(=O)NCCCn1ccnc1)c1c(Cl)cccc1Cl` (stereo not drawn) [Z1004969394], the IC50 (HIV NL4.3 strain; analogs of TT-44856 (Table 3)) is reported as greater than 100 µM.
Compound `CCC(=O)NC(C(=O)NCCCn1ccnc1)c1ccccc1` (stereo not drawn) [Z1207330250] has an IC50 (HIV NL4.3 strain; analogs of TT-44856 (Table 3)) greater than 100 µM.
For `O=C(NCCCn1ccnc1)c1ccc2ccccc2c1` [3-34], the CC50 ([1]; analogs of TT-44856 (Table 3)) was greater than 100 µM.
Compound `O=C(NCCCn1ccnc1)c1ccc(Oc2ccccc2)cc1` [Z56813845] has an IC50 (HIV NL4.3 strain; analogs of TT-44856 (Table 3)) greater than 100 µM.
`O=C(Cc1c(Cl)cccc1Cl)NCCCn1ccnc1` [Z30217435] gave an IC50 (HIV NL4.3 strain; analogs of TT-44856 (Table 3)) greater than 100 µM.
For `CC(CNC(=O)CCn1cncn1)(c1ccccc1)c1ccccc1` [Z221503086], the IC50 (HIV NL4.3 strain; analogs of TT-44856 (Table 3)) was greater than 100 µM.
`O=C(Cc1ccc2ccccc2c1)NCCCn1ccnc1` [Z31795124] showed an IC50 (HIV NL4.3 strain; analogs of TT-44856 (Table 3)) greater than 100 µM.
Compound `O=C(Cc1ccccc1Cl)NCCCn1ccnc1` [Z31796195] has an IC50 (HIV NL4.3 strain; analogs of TT-44856 (Table 3)) greater than 100 µM.
In the case of `Cc1ccc(CC(=O)NCCCn2ccnc2)cc1` [Z100612606], the IC50 (HIV NL4.3 strain; analogs of TT-44856 (Table 3)) is reported as greater than 100 µM.
`O=C(Cc1cccc(F)c1)NCCCn1ccnc1` [Z31796183] showed an IC50 (HIV NL4.3 strain; analogs of TT-44856 (Table 3)) greater than 100 µM.
`O=C(Cc1ccc2c(c1)CCC2)NCCCn1ccnc1` [Z51979499] gave an IC50 (HIV NL4.3 strain; analogs of TT-44856 (Table 3)) greater than 100 µM.
`COc1cccc(CC(=O)NCCCn2ccnc2)c1` [Z31796092] gave an IC50 (HIV NL4.3 strain; analogs of TT-44856 (Table 3)) greater than 100 µM.
Work on `Cc1ccccc1CC(=O)NCCCn1ccnc1` [Z51979592] yielded an IC50 (HIV NL4.3 strain; analogs of TT-44856 (Table 3)) greater than 100 µM.
In the case of `O=C(NCCCn1ccnc1)N(Cc1ccccc1)Cc1ccccc1` [Z991981670], the IC50 (HIV NL4.3 strain; analogs of TT-44856 (Table 3)) is reported as greater than 100 µM.
`O=C(CC(c1ccccc1)c1ccccc1)NCCCn1ccnc1` [Z30217483] showed an IC50 (HIV NL4.3 strain; analogs of TT-44856 (Table 3)) greater than 100 µM.
With `CC(C)(C(=O)NCCCn1ccnc1)c1cccc(C(F)(F)F)c1` [compound 46606] the CC50 ([1]; analogs of TT-44856 (Table 3)) was greater than 100 µM.
`CNc1ccccc1CC(=O)NCCCn1ccnc1` [Z31794405] gave an IC50 (HIV NL4.3 strain; analogs of TT-44856 (Table 3)) greater than 100 µM.
Work on `Cc1nccn1CCCNC(=O)C(C)(C)c1ccccc1Cl` [Z1119105307] yielded an IC50 (HIV NL4.3 strain; analogs of TT-44856 (Table 3)) greater than 100 µM.
For `O=C(Cc1ccccc1F)NCCCn1ccnc1` [Z31795827], the IC50 (HIV NL4.3 strain; analogs of TT-44856 (Table 3)) was greater than 100 µM.
`O=C(Cc1ccc(F)cc1)NCCCn1ccnc1` [Z31795779] gave an IC50 (HIV NL4.3 strain; analogs of TT-44856 (Table 3)) greater than 100 µM.
Compound `O=C(NCCCn1ccnc1)c1ccc2ccccc2c1` [Z31795639] has an IC50 (HIV NL4.3 strain; analogs of TT-44856 (Table 3)) greater than 100 µM.
`CC(C)(C(=O)NCCCn1ccnc1)c1cccc(C(F)(F)F)c1` [Z1053536312] showed an IC50 (HIV NL4.3 strain; analogs of TT-44856 (Table 3)) greater than 100 µM.
Compound `O=C(NCCCn1ccnc1)c1ccc(-c2ccccc2)cc1` [Z31795699] has an IC50 (HIV NL4.3 strain; analogs of TT-44856 (Table 3)) greater than 100 µM.
